Source: PubChem BioAssay (NCI)
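Step 1: Grow cells in 96-well plates. Step 2: Expose to compound for 48 hours at 5 concentrations. Step 3: Interpolate endpoints linearly; if unreached, use highest concentration. TGI denotes the concentration required for complete inhibition of growth.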

Experiments:
Experiment in all cases: DTP human tumour cell line panel, 48 h
[1] = tested on: M19-MEL melanoma
[2] = tested on: A498 renal
[3] = tested on: RXF 393 renal
[4] = tested on: NCI-H522 lung
[5] = tested on: MOLT-4 leukemia
[6] = tested on: SNB-19 CNS
[7] = tested on: SK-OV-3 ovarian
[8] = tested on: UACC-62 melanoma
[9] = tested on: NCI-H226 lung
[10] = tested on: SK-MEL-28 melanoma
[11] = tested on: LOX IMVI melanoma
[12] = tested on: OVCAR-5 ovarian
[13] = tested on: DMS 114 small cell lung
[14] = tested on: OVCAR-3 ovarian
[15] = tested on: CAKI-1 renal
[16] = tested on: ACHN renal
[17] = tested on: UO-31 renal
[18] = tested on: HOP-62 NSCLC
[19] = tested on: SK-MEL-2 melanoma
[20] = tested on: SW-620 colon
[21] = tested on: DMS 273 small cell lung
[22] = tested on: DLD-1 colon
[23] = tested on: SF-295 CNS
[24] = tested on: UACC-257 melanoma
[25] = tested on: NCI-H23 lung
[26] = tested on: OVCAR-8 ovarian
[27] = tested on: HCT-15 colon
[28] = tested on: A549 NSCLC
[29] = tested on: EKVX NSCLC
[30] = tested on: XF 498 CNS
[31] = tested on: 786-0 renal
[32] = tested on: NCI-H460 lung
[33] = tested on: M14 melanoma
[34] = tested on: SF-268 CNS
[35] = tested on: TK-10 renal
[36] = tested on: HCC-2998 colon
[37] = tested on: KM20L2 colon
[38] = tested on: IGROV1 ovarian
[39] = tested on: SNB-75 CNS
[40] = tested on: COLO 205 colon
[41] = tested on: SK-MEL-5 melanoma
[42] = tested on: KM12 colon
[43] = tested on: CCRF-CEM leukemia
[44] = tested on: SN12C renal
[45] = tested on: SF-539 CNS
[46] = tested on: LXFL 529 NSCLC
[47] = tested on: HT29 colon
[48] = tested on: SNB-78 CNS
[49] = tested on: U251 CNS
[50] = tested on: MALME-3M melanoma
[51] = tested on: K-562 leukemia
[52] = tested on: HOP-92 NSCLC
[53] = tested on: HL-60(TB) leukemia
[54] = tested on: OVCAR-4 ovarian
[55] = tested on: HCT-116 colon
[56] = tested on: RPMI-8226 leukemia
[57] = tested on: SR leukemia

Structure (SMILES): O=C(/C=C/c1c(O)ccc2ccccc12)c1ccccc1Cl
- TGI [1]: 28.3 µM
- TGI [2]: > 100 µM
- TGI [3]: > 100 µM
- TGI [4]: 90 µM
- TGI [5]: > 100 µM
- TGI [6]: > 100 µM
- TGI [7]: > 100 µM
- TGI [8]: 29.9 µM
- TGI [9]: > 100 µM
- TGI [10]: 46.9 µM
- TGI [11]: 53.8 µM
- TGI [12]: > 100 µM
- TGI [13]: 53.3 µM
- TGI [14]: > 100 µM
- TGI [15]: > 100 µM
- TGI [16]: > 100 µM
- TGI [17]: > 100 µM
- TGI [18]: > 100 µM
- TGI [19]: 92.3 µM
- TGI [20]: 57.1 µM
- TGI [21]: > 100 µM
- TGI [22]: > 100 µM
- TGI [23]: 73.9 µM
- TGI [24]: 46.8 µM
- TGI [25]: 52.2 µM
- TGI [26]: > 100 µM
- TGI [27]: > 100 µM
- TGI [28]: > 100 µM
- TGI [29]: > 100 µM
- TGI [30]: 62.2 µM
- TGI [31]: > 100 µM
- TGI [32]: > 100 µM
- TGI [33]: 34.9 µM
- TGI [34]: > 100 µM
- TGI [35]: > 100 µM
- TGI [36]: > 100 µM
- TGI [37]: > 100 µM
- TGI [38]: > 100 µM
- TGI [39]: > 100 µM
- TGI [40]: 31.9 µM
- TGI [41]: 32.3 µM
- TGI [42]: > 100 µM
- TGI [43]: 50.7 µM
- TGI [44]: 86.5 µM
- TGI [45]: 80.6 µM
- TGI [46]: > 100 µM
- TGI [47]: > 100 µM
- TGI [48]: > 100 µM
- TGI [49]: > 100 µM
- TGI [50]: 41.5 µM
- TGI [51]: 53.4 µM
- TGI [52]: 75 µM
- TGI [53]: 35.1 µM
- TGI [54]: > 100 µM
- TGI [55]: 61.3 µM
- TGI [56]: > 100 µM

Structure (SMILES): N#Cc1c2nc3ccccc3nc2n2ccccc12
- TGI [1]: > 100 µM
- TGI [2]: > 100 µM
- TGI [4]: > 100 µM
- TGI [5]: > 100 µM
- TGI [6]: > 100 µM
- TGI [7]: > 100 µM
- TGI [8]: > 100 µM
- TGI [10]: > 100 µM
- TGI [11]: > 100 µM
- TGI [12]: > 100 µM
- TGI [13]: > 100 µM
- TGI [57]: > 100 µM
- TGI [14]: > 100 µM
- TGI [15]: > 100 µM
- TGI [16]: > 100 µM
- TGI [17]: > 100 µM
- TGI [18]: > 100 µM
- TGI [19]: > 100 µM
- TGI [20]: > 100 µM
- TGI [21]: > 100 µM
- TGI [22]: > 100 µM
- TGI [24]: > 100 µM
- TGI [25]: > 100 µM
- TGI [26]: > 100 µM
- TGI [27]: > 100 µM
- TGI [28]: > 100 µM
- TGI [29]: > 100 µM
- TGI [30]: > 100 µM
- TGI [31]: > 100 µM
- TGI [32]: > 100 µM
- TGI [33]: > 100 µM
- TGI [34]: > 100 µM
- TGI [35]: > 100 µM
- TGI [36]: > 100 µM
- TGI [37]: > 100 µM
- TGI [38]: > 100 µM
- TGI [39]: > 100 µM
- TGI [40]: > 100 µM
- TGI [41]: > 100 µM
- TGI [42]: > 100 µM
- TGI [43]: > 100 µM
- TGI [44]: > 100 µM
- TGI [45]: > 100 µM
- TGI [46]: > 100 µM
- TGI [48]: > 100 µM
- TGI [49]: > 100 µM
- TGI [50]: > 100 µM
- TGI [51]: > 100 µM
- TGI [53]: > 100 µM
- TGI [54]: > 100 µM
- TGI [55]: > 100 µM
- TGI [56]: > 100 µM

Structure (SMILES): Oc1c(-c2ccccc2)nc2ccccn12
- TGI [1]: > 100 µM
- TGI [2]: > 100 µM
- TGI [3]: > 100 µM
- TGI [4]: > 100 µM
- TGI [5]: > 100 µM
- TGI [6]: > 100 µM
- TGI [7]: > 100 µM
- TGI [8]: > 100 µM
- TGI [9]: > 100 µM
- TGI [10]: > 100 µM
- TGI [12]: > 100 µM
- TGI [13]: > 100 µM
- TGI [57]: > 100 µM
- TGI [14]: > 100 µM
- TGI [15]: > 100 µM
- TGI [16]: > 100 µM
- TGI [17]: > 100 µM
- TGI [18]: > 100 µM
- TGI [19]: > 100 µM
- TGI [20]: > 100 µM
- TGI [21]: > 100 µM
- TGI [22]: > 100 µM
- TGI [23]: > 100 µM
- TGI [24]: > 100 µM
- TGI [25]: > 100 µM
- TGI [26]: > 100 µM
- TGI [28]: > 100 µM
- TGI [29]: > 100 µM
- TGI [30]: > 100 µM
- TGI [31]: > 100 µM
- TGI [32]: > 100 µM
- TGI [33]: > 100 µM
- TGI [34]: > 100 µM
- TGI [35]: > 100 µM
- TGI [36]: > 100 µM
- TGI [37]: > 100 µM
- TGI [38]: > 100 µM
- TGI [39]: > 100 µM
- TGI [41]: > 100 µM
- TGI [42]: > 100 µM
- TGI [43]: > 100 µM
- TGI [44]: > 100 µM
- TGI [45]: > 100 µM
- TGI [46]: > 100 µM
- TGI [47]: > 100 µM
- TGI [48]: > 100 µM
- TGI [49]: > 100 µM
- TGI [50]: > 100 µM
- TGI [51]: > 100 µM
- TGI [53]: > 100 µM
- TGI [54]: > 100 µM
- TGI [55]: > 100 µM
